Reference: patent publication US10730911B2, “Backbone-cyclized peptidomimetics with GLP-1R modulating activity” (POLYPHOR AG, priority 2015, dated 2020)
Where a SMILES comes first, the peptide text is derived from it. [ ]: non-standard residue; d: D form. The star is where a group is joined. Trp(5-OH) = N[C@@H](Cc1c[nH]c2ccc(O)cc12)C(=O)O; His(π-Bn) = N[C@@H](Cc1cncn1Cc1ccccc1)C(=O)O; Phe(4-NH2) = Nc1ccc(C[C@H](N)C(=O)O)cc1; 3Pal = N[C@@H](Cc1cccnc1)C(=O)O; Ac6c = NC1(C(=O)O)CCCCC1; Dpg = CCCC(N)(CCC)C(=O)O; Bn = c1ccc(C*)cc1

Biological target: T1, human glucagon-like peptide-1 receptor (GLP-1R) (Homo sapiens, UniProt P43220)
T1 construct: host or cells: CHO chAMPion cells
Test: Human GLP-1 receptor cell-based assay (flash luminescence, Target Activation phase)
Settings: CHO chAMPion cells stably co-expressing human GLP-1R, Photina and cAMP-activated calcium channel; agonist activity; normalization by forskolin at 10 μM; ^a) values from single experiment; read-out: EC50 (μM) Target Activation (TA)
From the text: CHO chAMPion cells (Axxam SpA; S. Corazza, Assay Drug Dev. Technol. 2009, 7, 304-307) stably co-expressing the human glucagon-like peptide-1 receptor (GLP-1R), the Ca^2+-sensitive photoprotein PHOTINA® (S. Bovolenta et al., J. Biomol. Screen. 2007, 12, 694-704) and a mutated cAMP-activated calcium ion channel (WO2004/083803 A2) were used to monitor GLP-1R signaling after stimulation with an agonist. Activation of the Gas-coupled GPCR GLP-1R was monitored by measuring the flash luminescence of the Ca^2+-sensitive photoprotein as reporter system with FLIPR^TETRA screening instrumentation (Molecular Devices) upgraded with an ICCD Camera (MDC). For data quality check and data analysis the Genedata SCREENER® software was used.
The reference agonist GLP-1 (glucagon-like peptide-1 amide fragment 7-36) and forskolin were purchased from Sigma (cat. G8147 and F6886, respectively) and prepared according to each ligand's specifications. All handling of ligands were done to ensure proper control throughout the experiments. The steps of the implemented workflow and data analysis are mainly as follows:
Stably transfected chAMPion cells are seeded 10000 c/w in 384 MTP in Dulbecco's MEM/nutrient mix F12 (BioWhittaker cat. BE04-687F/U1; 500 mL) supplemented with sodium pyruvate (BioWhittaker cat. BE13-115E; 5 mL of 100 mM solution), HEPES (BioWhittaker cat. BE17-737E; 6.5 mL of 1M solution), sodium bicarbonate (BioWhittaker cat. BE17-613E; 25 mL of 7.5% solution), fetal bovine serum (Euroclone cat. ECS 0180L; 50 mL), penicillin-streptomycin (BioWhittaker cat. DE17-602E; 5 mL of 100×solution), 1 mg/mL G418 (selection antibiotic for GLP-1R) and 200 μg/mL hygromycin in 25 μL/well for 24 hours. On the day of the experiment, plates are removed from the incubator, freed from the growth medium, equilibrated at room temperature for 1 h, loaded with 30 μl/well of Ca^2+ free Tyrode's buffer containing 20 μM coelentrazine and 500 μM IBMX, and incubated for 4 hours at room temperature.
All compounds were tested at 8 concentrations, starting from 50 μM in quadruplicate, intra-plate (dilution step 1:2.15) to determine EC50 values. After incubation, the volume in all the wells is flattened to 20 αL by aspiration with a CYBIO®-VARIO pipettor. First Injection (10 μL of test compounds in Ca^2+ free Tyrode's buffer, DMSO 0.5% v/v and BSA 0.01%; or 10 μL of reference compounds GLP-1 or forskolin in Ca′ free Tyrode's buffer, DMSO 0.5% v/v and BSA 0.01%) is performed by the FLIPR^TETRA and the kinetic response is optionally monitored over a period of 60 seconds. Incubation for 30 minutes at room temperature is followed by the Second Injection (Tyrode's buffer+10 mM CaCl2)) and the kinetic response is monitored over a period of 60 seconds.
The kinetic response is divided into two distinct phases: monitoring the kinetic response after the First Injection, termed Compound Addition (CA), and monitoring the kinetic response after the Second Injection of 10 mM CaCl2, termed Target Activation (TA). Agonist activity of compounds is evaluated in the Target Activation (TA) phase and it is based on normalization to TA activation by forskolin at 10 μM or GLP-1 at 3.16 nM (EC100)
A good correlation was observed between EC50, data normalized by forskolin and by GLP-1.

T1 sequence (P43220 24-463): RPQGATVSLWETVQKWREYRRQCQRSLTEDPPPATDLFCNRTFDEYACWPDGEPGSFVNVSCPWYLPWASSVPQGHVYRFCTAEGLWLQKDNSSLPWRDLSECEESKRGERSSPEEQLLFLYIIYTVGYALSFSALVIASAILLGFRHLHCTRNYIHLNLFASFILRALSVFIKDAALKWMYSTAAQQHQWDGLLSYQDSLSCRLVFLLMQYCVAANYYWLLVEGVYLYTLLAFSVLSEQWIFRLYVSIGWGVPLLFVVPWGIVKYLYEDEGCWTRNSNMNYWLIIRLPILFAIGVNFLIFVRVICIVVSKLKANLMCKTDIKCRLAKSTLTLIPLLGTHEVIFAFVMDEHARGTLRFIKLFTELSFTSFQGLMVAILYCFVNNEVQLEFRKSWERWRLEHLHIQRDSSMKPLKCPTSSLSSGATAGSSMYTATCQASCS

`C[C@@H]1NC(=O)[C@H](Cc2ccc(O)cc2)NC(=O)[C@H](CCC(N)=O)NC(=O)[C@H](Cc2c[nH]c3ccccc23)NC(=O)[C@H](Cc2ccccc2)NC(=O)C2(CCCCC2)NC(=O)[C@H]2CCCN2C(=O)[C@H](Cc2cncn2Cc2ccccc2)NC(=O)[C@H](CCC(=O)O)NC(=O)[C@H](Cc2c[nH]c3ccccc23)NC1=O` [compound 15, cyclo(-Phe-Trp-Gln-Tyr-Ala-Trp-Glu-His(Bn)-^DPro-Chx-)] (cyclo(FWQYAWE[His(π-Bn)][dP][Ac6c])) and `C[C@@H]1NC(=O)[C@H](Cc2ccc(O)cc2)NC(=O)[C@H](CCC(N)=O)NC(=O)[C@H](Cc2c[nH]c3ccccc23)NC(=O)[C@H](Cc2ccccc2)NC(=O)C2(CCCCC2)NC(=O)[C@H]2CCCN2C(=O)[C@H](Cc2ccccc2)NC(=O)[C@H](CCC(=O)O)NC(=O)[C@H](Cc2c[nH]c3ccccc23)NC1=O` [compound 24, cyclo(-Phe-Trp-Gln-Tyr-Ala-Trp-Glu-Phe-^DPro-Chx-)] (cyclo(FWQYAWEF[dP][Ac6c])) are within error of each other in EC50: 0.7 ± 0.42 µM for the first, 0.89 ± 0.51 µM for the second.

`CC(C)C[C@@H]1NC(=O)[C@H](CCC(=O)O)NC(=O)[C@H](Cc2ccccc2)NC(=O)C2(CCCCC2)NC(=O)[C@H]2CCCN2C(=O)[C@H](Cc2c[nH]c3ccccc23)NC(=O)[C@H](CCC(=O)O)NC(=O)[C@H](Cc2c[nH]c3ccccc23)NC(=O)[C@H](C)NC(=O)[C@H](Cc2ccc(O)cc2)NC1=O` [compound 16, cyclo(-Phe-Glu-Leu-Tyr-Ala-Trp-Glu-Trp-^DPro-Chx-)] (cyclo(FELYAWEW[dP][Ac6c])) and `CC(C)C[C@@H]1NC(=O)[C@H](CCC(=O)O)NC(=O)[C@H](Cc2ccccc2)NC(=O)C2(CCCCC2)NC(=O)[C@H]2CCCN2C(=O)[C@H](Cc2c[nH]c3ccc(O)cc23)NC(=O)[C@H](CCC(=O)O)NC(=O)[C@H](Cc2c[nH]c3ccccc23)NC(=O)[C@H](C)NC(=O)[C@H](Cc2ccc(O)cc2)NC1=O` [compound 25, cyclo(-Phe-Glu-Leu-Tyr-Ala-Trp-Glu-Trp(5OH)-^DPro-Chx-)] (cyclo(FELYAWE[Trp(5-OH)][dP][Ac6c])) are within error of each other in EC50: 0.41 µM for the first, 0.94 ± 0.68 µM for the second.

`C[C@@H]1NC(=O)[C@H](Cc2ccc(O)cc2)NC(=O)[C@H](CCC(N)=O)NC(=O)[C@H](Cc2c[nH]c3ccccc23)NC(=O)[C@H](Cc2ccccc2)NC(=O)C2(CCCCC2)NC(=O)[C@H]2CCCN2C(=O)[C@H](Cc2c[nH]c3ccccc23)NC(=O)[C@H](CCC(=O)O)NC(=O)[C@H](Cc2c[nH]c3ccccc23)NC1=O` [compound 17, cyclo(-Phe-Trp-Gln-Tyr-Ala-Trp-Glu-Trp-^DPro-Chx-)] (cyclo(FWQYAWEW[dP][Ac6c])) and `C[C@@H]1NC(=O)[C@H](Cc2ccc(O)cc2)NC(=O)[C@H](CCC(N)=O)NC(=O)[C@H](Cc2c[nH]c3ccccc23)NC(=O)[C@H](Cc2ccccc2)NC(=O)C2(CCCCC2)NC(=O)[C@H]2CCCN2C(=O)[C@H](Cc2c[nH]c3ccc(O)cc23)NC(=O)[C@H](CCC(=O)O)NC(=O)[C@H](Cc2c[nH]c3ccccc23)NC1=O` [compound 18, cyclo(-Phe-Trp-Gln-Tyr-Ala-Trp-Glu-Trp(5OH)-^DPro-Chx-)] (cyclo(FWQYAWE[Trp(5-OH)][dP][Ac6c])) are within error of each other in EC50: 0.6 ± 0.29 µM for the first, 0.82 ± 0.55 µM for the second.

`C[C@@H]1NC(=O)[C@H](Cc2ccc(O)cc2)NC(=O)[C@H](CCC(N)=O)NC(=O)[C@H](Cc2cccnc2)NC(=O)[C@H](Cc2ccccc2)NC(=O)C2(CCCCC2)NC(=O)[C@H]2CCCN2C(=O)[C@H](CCCNC(=N)N)NC(=O)[C@H](CCC(=O)O)NC(=O)[C@H](Cc2c[nH]c3ccccc23)NC1=O` [compound 19, cyclo(-Phe-3Pal-Gln-Tyr-Ala-Trp-Glu-Arg-^DPro-Chx-)] (cyclo(F[3Pal]QYAWER[dP][Ac6c])) and `C[C@@H]1NC(=O)[C@H](Cc2ccc(O)cc2)NC(=O)[C@H](CCC(N)=O)NC(=O)[C@H](Cc2ccc(N)cc2)NC(=O)[C@H](Cc2ccccc2)NC(=O)C2(CCCCC2)NC(=O)[C@H]2CCCN2C(=O)[C@H](CCCNC(=N)N)NC(=O)[C@H](CCC(=O)O)NC(=O)[C@H](Cc2c[nH]c3ccccc23)NC1=O` [compound 21, cyclo(-Phe-Phe(4NH2)-Gln-Tyr-Ala-Trp-Glu-Arg-^DPro-Chx-)] (cyclo(F[Phe(4-NH2)]QYAWER[dP][Ac6c])) are within error of each other in EC50: 0.72 ± 0.38 µM for the first, 0.67 ± 0.28 µM for the second.

`CC(C)C[C@@H]1NC(=O)[C@H](Cc2c[nH]cn2)NC(=O)[C@H](Cc2ccccc2)NC(=O)C2(CCCCC2)NC(=O)[C@H]2CCCN2C(=O)[C@H](Cc2ccc(O)cc2)NC(=O)[C@H](CCC(=O)O)NC(=O)[C@H](Cc2c[nH]c3ccccc23)NC(=O)[C@H](C)NC(=O)[C@H](Cc2ccc(O)cc2)NC1=O` [compound 20, cyclo(-Phe-His-Leu-Tyr-Ala-Trp-Glu-Tyr-^DPro-Chx-)] (cyclo(FHLYAWEY[dP][Ac6c])) and `CC(C)C[C@@H]1NC(=O)[C@H](CCC(=O)O)NC(=O)[C@H](Cc2ccccc2)NC(=O)C2(CCCCC2)NC(=O)[C@H]2CCCN2C(=O)[C@H](Cc2ccc(O)cc2)NC(=O)[C@H](Cc2c[nH]c3ccc(O)cc23)NC(=O)[C@H](Cc2c[nH]c3ccccc23)NC(=O)[C@H](C)NC(=O)[C@H](Cc2ccc(O)cc2)NC1=O` [compound 28, cyclo(-Phe-Glu-Leu-Tyr-Ala-Trp-Trp(5OH)-Tyr-^DPro-Chx-)] (cyclo(FELYAW[Trp(5-OH)]Y[dP][Ac6c])) are within error of each other in EC50: 0.59 ± 0.35 µM for the first, 1.2 ± 0.9 µM for the second.

`C[C@@H]1NC(=O)[C@H](Cc2ccc(O)cc2)NC(=O)[C@H](CCC(N)=O)NC(=O)[C@H](Cc2c[nH]c3ccccc23)NC(=O)[C@H](Cc2ccccc2)NC(=O)C2(CCCCC2)NC(=O)[C@H]2CCCN2C(=O)[C@H](Cc2ccc(OCc3ccccc3)cc2)NC(=O)[C@H](CCC(=O)O)NC(=O)[C@H](Cc2c[nH]c3ccccc23)NC1=O` [compound 22, cyclo(-Phe-Trp-Gln-Tyr-Ala-Trp-Glu-Tyr(Bn)-^DPro-Chx-)] (cyclo(FWQYAWEY(Bn)[dP][Ac6c])) and `C[C@@H]1NC(=O)[C@H](Cc2ccccc2)NC(=O)[C@H](CCC(N)=O)NC(=O)[C@H](Cc2c[nH]c3ccccc23)NC(=O)[C@H](Cc2ccccc2)NC(=O)C2(CCCCC2)NC(=O)[C@H]2CCCN2C(=O)[C@H](Cc2ccc(O)cc2)NC(=O)[C@H](CCC(=O)O)NC(=O)[C@H](Cc2c[nH]c3ccccc23)NC1=O` [compound 27, cyclo(-Phe-Trp-Gln-Phe-Ala-Trp-Glu-Tyr-^DPro-Chx-)] (cyclo(FWQFAWEY[dP][Ac6c])) are within error of each other in EC50: 0.72 ± 0.4 µM for the first, 0.58 µM for the second.

`COc1ccc(C[C@@H]2NC(=O)[C@H](CCC(N)=O)NC(=O)[C@H](Cc3c[nH]c4ccccc34)NC(=O)[C@H](Cc3ccccc3)NC(=O)C3(CCCCC3)NC(=O)[C@H]3CCCN3C(=O)[C@H](CCCNC(=N)N)NC(=O)[C@H](CCC(=O)O)NC(=O)[C@H](Cc3c[nH]c4ccccc34)NC(=O)[C@H](C)NC2=O)cc1` [compound 23, cyclo(-Phe-Trp-Gln-Tyr(Me)-Ala-Trp-Glu-Arg-^DPro-Chx-)] (cyclo(FWQY(Me)AWER[dP][Ac6c])) and `COc1ccc(C[C@@H]2NC(=O)[C@H](CC(C)C)NC(=O)[C@H](CCC(=O)O)NC(=O)[C@H](Cc3ccccc3)NC(=O)C3(CCCCC3)NC(=O)[C@H]3CCCN3C(=O)[C@H](Cc3ccc(O)cc3)NC(=O)[C@H](CCC(=O)O)NC(=O)[C@H](Cc3c[nH]c4ccccc34)NC(=O)[C@H](C)NC2=O)cc1` [compound 29, cyclo(-Phe-Glu-Leu-Tyr(Me)-Ala-Trp-Glu-Tyr-^DPro-Chx-)] (cyclo(FELY(Me)AWEY[dP][Ac6c])) are within error of each other in EC50: 0.67 ± 0.22 µM for the first, 0.62 µM for the second.

`CCCC1(CCC)NC(=O)[C@H]2CCCN2C(=O)[C@H](Cc2ccccc2)NC(=O)[C@H](CCC(=O)O)NC(=O)[C@H](Cc2c[nH]c3ccccc23)NC(=O)[C@H](C)NC(=O)[C@H](CC(C)C)NC(=O)[C@H](CC(C)C)NC(=O)[C@H](CCC(=O)O)NC(=O)[C@H](Cc2ccccc2)NC1=O` [compound 26, cyclo(-Phe-Glu-Leu-Leu-Ala-Trp-Glu-Phe-^DPro-Dpg-)] (cyclo(FELLAWEF[dP][Dpg])) showed an EC50 of 1 ± 0.5 µM.
